Data set [1] in a line: Solubility of compound in DMSO. The data set is classed as physicochemical.
Data set [2] deals with Nucleic Acid. Kind of data set: Induction of bacteriophage supercoiled double stranded phiX174 plasmid DNA cleavage assessed as formation of relaxed open circular form at 40 ug using ethidium bromide staining by agarose gel electrophoresis-based UV transilluminator analysis relative to control. The data set is classed as nucleic-acid assay. More on the design: scale not given: the % may be the effect or the level left. As to conditions: unidentified phage.

Data set [3] has as its system Nucleic Acid. The data set can be described thus: Induction of bacteriophage supercoiled double stranded phiX174 plasmid DNA cleavage assessed as formation of relaxed open circular form at 30 ug followed by UV irradiation for 45 mins using ethidium bromide staining by agarose gel electrophoresis-based UV transilluminator analysis relative to control. The data set is classed as nucleic-acid assay. Also noted: scale not given: the % may be the effect or the level left. As to conditions: unidentified phage.

Data set [4] has as its system Nucleic Acid. Kind of data set: Induction of bacteriophage supercoiled double stranded phiX174 plasmid DNA cleavage assessed as formation of relaxed open circular form at 80 ug followed by UV irradiation for 45 mins using ethidium bromide staining by agarose gel electrophoresis-based UV transilluminator analysis relative to control. Format: nucleic-acid assay. Also noted: scale not given: the % may be the effect or the level left. As to conditions: unidentified phage.

Data set [5] deals with Nucleic Acid. The data set can be described thus: Induction of bacteriophage supercoiled double stranded phiX174 plasmid DNA cleavage assessed as formation of relaxed open circular form at 120 ug followed by UV irradiation for 45 mins using ethidium bromide staining by agarose gel electrophoresis-based UV transilluminator analysis relative to control. The data set is classed as nucleic-acid assay. Also noted: scale not given: the % may be the effect or the level left. As to conditions: unidentified phage.

On to `Cc1nc2ccccc2n2c(-c3ccccc3[N+](=O)[O-])nnc12`, for which the solubility entry in data set [1] is reported as “soluble”.

In the case of `Cc1nc2ccccc2n2c(-c3ccccc3Cl)nnc12`, the solubility result in data set [1] is listed as “soluble”.

As to `Cc1nc2ccccc2n2c(-c3cccs3)nnc12`, the solubility result in data set [1] is “soluble”. The Activity was 0% with Nucleic Acid [2], 26% in the data set on Nucleic Acid [3], 53% in the data set with Nucleic Acid [4] and 68% in the data set with Nucleic Acid [5].

As for `Cc1nc2ccccc2n2c(-c3ccco3)nnc12`, the solubility entry in data set [1] is recorded as “soluble”.

Values taken from ChEMBL document CHEMBL1914296, “Copper(II) chloride mediated synthesis and DNA photocleavage activity of 1-aryl/heteroaryl-4-substituted-1,2,4-triazolo[4,3-a]quinoxalines” (Eur J Med Chem, 2011).
